In ChEMBL document CHEMBL1909046, “DrugMatrix in vitro pharmacology data”:

Legend:
[1] = target: T1, Polyunsaturated fatty acid lipoxygenase ALOX15 (Oryctolagus cuniculus, UniProt P12530); test: biochemical; type: tissue-based, Reticulocytes;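 further: inhibition of 15-lipoxygenase enzyme activity measured with linoleic acid as the substrate; in other assays of this panel Not Active means under 50% inhibition at 10 µM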
T1 sequence (P12530 whole entry): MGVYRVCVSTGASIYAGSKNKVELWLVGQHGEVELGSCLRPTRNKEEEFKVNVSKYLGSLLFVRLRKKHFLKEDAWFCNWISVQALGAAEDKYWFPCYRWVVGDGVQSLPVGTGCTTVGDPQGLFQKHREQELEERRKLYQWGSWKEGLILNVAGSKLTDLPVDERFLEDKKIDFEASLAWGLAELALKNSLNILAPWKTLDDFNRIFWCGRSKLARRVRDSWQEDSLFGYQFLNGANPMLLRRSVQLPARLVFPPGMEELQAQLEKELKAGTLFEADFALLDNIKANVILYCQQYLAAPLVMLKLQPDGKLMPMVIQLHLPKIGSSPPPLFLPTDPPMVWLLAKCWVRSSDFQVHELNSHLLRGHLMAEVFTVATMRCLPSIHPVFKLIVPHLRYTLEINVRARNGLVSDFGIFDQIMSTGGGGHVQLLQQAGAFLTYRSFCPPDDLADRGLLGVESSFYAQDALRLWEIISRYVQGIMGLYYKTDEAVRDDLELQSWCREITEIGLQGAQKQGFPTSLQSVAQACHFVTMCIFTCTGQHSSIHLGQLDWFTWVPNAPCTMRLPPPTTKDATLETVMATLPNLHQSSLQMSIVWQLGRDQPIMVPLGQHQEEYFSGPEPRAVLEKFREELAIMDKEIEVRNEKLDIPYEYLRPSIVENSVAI

[2] = target: Kappa-type opioid receptor (Homo sapiens, UniProt P41145); test: DRUGMATRIX: Opiate kappa (OP2, KOP) radioligand binding (ligand: [3H] Diprenorphine); type: cell membranes, HEK293, Membrane; conditions: Not Active = under 50% inhibition at 10 µM
Chain of Kappa-type opioid receptor (P41145 whole entry): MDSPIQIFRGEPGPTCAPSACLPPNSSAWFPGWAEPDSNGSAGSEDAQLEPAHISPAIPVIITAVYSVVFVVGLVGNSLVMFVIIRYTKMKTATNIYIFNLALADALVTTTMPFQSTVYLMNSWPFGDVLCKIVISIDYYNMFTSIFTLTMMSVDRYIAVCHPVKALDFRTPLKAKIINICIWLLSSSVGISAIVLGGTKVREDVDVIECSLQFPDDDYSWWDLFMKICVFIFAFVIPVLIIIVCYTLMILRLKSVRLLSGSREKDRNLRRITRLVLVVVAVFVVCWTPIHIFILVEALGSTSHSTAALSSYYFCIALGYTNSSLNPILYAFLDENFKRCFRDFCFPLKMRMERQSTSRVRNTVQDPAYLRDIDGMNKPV

[3] = target: 5-hydroxytryptamine receptor 4 (Cavia porcellus, UniProt O70528); type: cell membranes, Dunkin-Hartley, Striatum, Membrane; further: in other assays of this panel Not Active means under 50% inhibition at 10 µM
Chain of 5-hydroxytryptamine receptor 4 (O70528 whole entry): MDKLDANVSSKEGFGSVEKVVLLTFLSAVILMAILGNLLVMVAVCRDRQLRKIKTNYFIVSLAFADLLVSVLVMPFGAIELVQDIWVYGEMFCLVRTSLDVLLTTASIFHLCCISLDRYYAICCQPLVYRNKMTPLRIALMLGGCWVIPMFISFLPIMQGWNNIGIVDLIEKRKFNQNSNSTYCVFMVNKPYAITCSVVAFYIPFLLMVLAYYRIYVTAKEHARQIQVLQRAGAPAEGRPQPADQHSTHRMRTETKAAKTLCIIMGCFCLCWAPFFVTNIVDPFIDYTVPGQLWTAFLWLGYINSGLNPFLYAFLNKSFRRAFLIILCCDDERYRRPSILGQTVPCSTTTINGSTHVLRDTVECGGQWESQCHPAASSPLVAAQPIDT

[4] = target: Epidermal growth factor receptor (Homo sapiens, UniProt P00533); test: DRUGMATRIX: Protein Tyrosine Kinase, EGF Receptor enzyme inhibition (substrate: Poly(Glu:Tyr)); type: cell-based, Insect cells; conditions: Not Active = under 50% inhibition at 10 µM
Chain of Epidermal growth factor receptor (P00533 whole entry): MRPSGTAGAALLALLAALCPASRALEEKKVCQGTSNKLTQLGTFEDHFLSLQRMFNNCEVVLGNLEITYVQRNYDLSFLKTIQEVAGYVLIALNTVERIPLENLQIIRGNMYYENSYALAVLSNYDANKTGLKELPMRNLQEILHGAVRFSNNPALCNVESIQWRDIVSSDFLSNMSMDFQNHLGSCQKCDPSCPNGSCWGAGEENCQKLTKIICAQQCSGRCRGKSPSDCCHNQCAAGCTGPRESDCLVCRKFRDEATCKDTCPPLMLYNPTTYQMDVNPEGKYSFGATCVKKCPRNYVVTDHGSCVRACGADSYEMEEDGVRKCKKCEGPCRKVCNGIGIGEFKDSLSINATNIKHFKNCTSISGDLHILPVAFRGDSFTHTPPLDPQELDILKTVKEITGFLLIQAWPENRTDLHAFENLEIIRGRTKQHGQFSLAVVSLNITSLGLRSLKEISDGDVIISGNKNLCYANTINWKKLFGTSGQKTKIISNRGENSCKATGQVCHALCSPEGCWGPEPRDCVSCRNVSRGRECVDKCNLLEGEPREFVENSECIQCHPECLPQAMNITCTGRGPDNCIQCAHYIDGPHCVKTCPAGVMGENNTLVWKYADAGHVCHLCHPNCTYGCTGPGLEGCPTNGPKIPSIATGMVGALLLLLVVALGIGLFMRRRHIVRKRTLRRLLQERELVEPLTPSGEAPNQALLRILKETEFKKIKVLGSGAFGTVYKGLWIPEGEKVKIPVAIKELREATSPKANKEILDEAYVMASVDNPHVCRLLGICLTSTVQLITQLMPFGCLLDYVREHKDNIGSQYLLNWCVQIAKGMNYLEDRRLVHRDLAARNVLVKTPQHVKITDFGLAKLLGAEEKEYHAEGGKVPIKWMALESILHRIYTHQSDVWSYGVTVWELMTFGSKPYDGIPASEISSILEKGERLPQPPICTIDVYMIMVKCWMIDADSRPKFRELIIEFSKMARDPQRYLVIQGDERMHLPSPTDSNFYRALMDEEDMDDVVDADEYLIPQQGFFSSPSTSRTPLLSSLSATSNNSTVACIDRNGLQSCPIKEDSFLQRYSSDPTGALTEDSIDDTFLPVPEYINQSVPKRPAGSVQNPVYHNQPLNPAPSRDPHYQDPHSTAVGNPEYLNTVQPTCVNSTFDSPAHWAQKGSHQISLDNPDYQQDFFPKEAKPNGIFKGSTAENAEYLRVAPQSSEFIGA

[5] = target: Tyrosine-protein kinase Lck (Homo sapiens, UniProt P06239); test: DRUGMATRIX: Protein Tyrosine Kinase, LCK enzyme inhibition (substrate: Poly(Glu:Tyr)); type: cell-based, Insect cells; conditions: Not Active = under 50% inhibition at 10 µM
Chain of Tyrosine-protein kinase Lck (P06239 whole entry): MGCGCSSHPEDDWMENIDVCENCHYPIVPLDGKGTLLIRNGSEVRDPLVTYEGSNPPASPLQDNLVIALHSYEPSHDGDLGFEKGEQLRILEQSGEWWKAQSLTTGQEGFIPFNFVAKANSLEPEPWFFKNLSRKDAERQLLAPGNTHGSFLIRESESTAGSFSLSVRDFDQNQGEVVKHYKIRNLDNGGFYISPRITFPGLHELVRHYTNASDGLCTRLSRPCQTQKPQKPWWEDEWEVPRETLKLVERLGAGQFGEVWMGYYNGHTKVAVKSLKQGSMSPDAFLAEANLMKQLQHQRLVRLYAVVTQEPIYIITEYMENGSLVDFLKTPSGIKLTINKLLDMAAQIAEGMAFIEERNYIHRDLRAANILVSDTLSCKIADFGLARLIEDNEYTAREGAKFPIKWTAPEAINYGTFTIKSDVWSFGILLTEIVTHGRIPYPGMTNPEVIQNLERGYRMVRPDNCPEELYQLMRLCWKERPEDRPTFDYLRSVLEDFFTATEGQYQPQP

Row | Structure (SMILES) | IC50 ([1]; reticulocytes) | IC50 ([2]; hek293) | IC50 [3] | IC50 ([4]; insect cells) | IC50 ([5]; insect cells) | IC50 ([4]; read-out: IC50) | IC50 ([5]; read-out: IC50) | IC50 ([1]; read-out: IC50) | Ki [2] | IC50 ([2]; read-out: IC50) | Ki ([5]; insect cells) | IC50 ([3]; read-out: IC50) | Ki ([3]; read-out: Ki)
1 | CO[C@@]1(NC(=O)CSCC#N)C(=O)N2C(C(=O)O)=C(CSc3nnnn3C)CS[C@@H]21 [CEFMETAZOLE] | Not Active | Not Active | Not Active | Not Active | Not Active |  |  |  |  |  |  |  | 
2 | CC(=O)O[C@]1(C(C)=O)CC[C@H]2[C@@H]3C=C(C)C4=CC(=O)CC[C@]4(C)[C@H]3CC[C@@]21C [MEGESTROL ACETATE] | Not Active | Not Active | Not Active | Not Active | Not Active |  |  |  |  |  |  |  | 
3 | COc1cc(CNC(=O)CCCC/C=C/C(C)C)ccc1O [CAPSAICIN] | Not Active | Not Active | Not Active | Not Active | Not Active |  |  |  |  |  |  |  | 
4 | CC(C)(C)c1ccc(S(=O)(=O)/C=C/C#N)cc1 [BAY-11-7085] | Not Active | Not Active | Not Active | Not Active | Not Active |  |  |  |  |  |  |  | 
5 | CC[C@H](C)C(=O)O[C@H]1C[C@@H](C)C=C2C=C[C@H](C)[C@H](CC[C@@H]3C[C@@H](O)CC(=O)O3)[C@H]21 [LOVASTATIN] | Not Active | Not Active | Not Active | Not Active | Not Active |  |  |  |  |  |  |  | 
6 | O=C(c1ccccc1Cl)N1CCC(Cc2ccccc2)CC1 | Not Active | Not Active | Not Active | Not Active | Not Active |  |  |  |  |  |  |  | 
7 | CCOC(=O)[C@H](CCc1ccccc1)N[C@@H](C)C(=O)N1Cc2ccccc2C[C@H]1C(=O)O | Not Active | Not Active | Not Active | Not Active | Not Active |  |  |  |  |  |  |  | 
8 | CC[C@H]1OC(=O)[C@H](C)[C@@H](O[C@H]2C[C@@](C)(OC)[C@@H](O)[C@H](C)O2)[C@H](C)[C@@H](O[C@@H]2O[C@H](C)C[C@H](N(C)C)[C@H]2O)[C@](C)(O)C[C@@H](C)CN(C)[C@H](C)[C@@H](O)[C@]1(C)O [AZITHROMYCIN] | Not Active | Not Active | Not Active | Not Active | Not Active |  |  |  |  |  |  |  | 
9 | Cc1cccc(Nc2ccccc2C(=O)O)c1C [MEFENAMIC ACID] | Not Active | Not Active | Not Active | Not Active | Not Active |  |  |  |  |  |  |  | 
10 | COC(=O)c1ccccc1O [METHYL SALICYLATE] | Not Active | Not Active | Not Active | Not Active | Not Active |  |  |  |  |  |  |  | 
11 | CC[C@H](C)C(=O)O[C@H]1C[C@H](O)C=C2C=C[C@H](C)[C@H](CC[C@@H](O)C[C@@H](O)CC(=O)O)[C@H]21 [PRAVASTATIN] | Not Active | Not Active | Not Active | Not Active | Not Active |  |  |  |  |  |  |  | 
12 | N[C@@H](Cc1ccc(F)cc1)C(=O)O | Not Active | Not Active | Not Active | Not Active | Not Active |  |  |  |  |  |  |  | 
13 | C[C@]12C/C(=C/O)C(=O)C[C@@H]1CC[C@@H]1[C@@H]2CC[C@@]2(C)[C@H]1CC[C@]2(C)O [OXYMETHOLONE] | Not Active | Not Active | Not Active | Not Active | Not Active |  |  |  |  |  |  |  | 
14 | OCCO [ETHYLENE GLYCOL] | Not Active | Not Active | Not Active | Not Active | Not Active |  |  |  |  |  |  |  | 
15 | NC[C@H]1O[C@H](O[C@H]2[C@H](O)[C@@H](O[C@H]3O[C@H](CO)[C@@H](O)[C@H](N)[C@H]3O)[C@H](N)C[C@@H]2N)[C@H](O)[C@@H](O)[C@@H]1O [KANAMYCIN] | Not Active | Not Active | Not Active | Not Active | Not Active |  |  |  |  |  |  |  | 
16 | O=C(/C=C/c1ccc(O)c(O)c1)OCCc1ccccc1 [CAFFEIC ACID PHENETHYL ESTER] | Not Active | Not Active | Not Active |  |  | 1.01 µM | 2.89 µM |  |  |  |  |  | 
17 | NC[C@@H]1O[C@H](O[C@H]2[C@@H](O)[C@H](O[C@@H]3[C@@H](O)[C@H](N)C[C@H](N)[C@H]3O[C@H]3O[C@H](CN)[C@@H](O)[C@H](O)[C@H]3N)O[C@@H]2CO)[C@H](N)[C@@H](O)[C@@H]1O [FRAMYCETIN] | Not Active | Not Active | Not Active | Not Active | Not Active |  |  |  |  |  |  |  | 
18 | CCCCCC[C@H]1C(=O)O[C@H](C)[C@H](NC(=O)c2cccc(NC=O)c2O)C(=O)O[C@@H](C)[C@@H]1OC(=O)CC(C)C [ANTIMYCIN A] | Not Active | Not Active | Not Active | Not Active | Not Active |  |  |  |  |  |  |  | 
19 | Oc1ccccc1O [CATECHOL] |  | Not Active | Not Active |  | Not Active | 26 µM |  | 0.868 µM |  |  |  |  | 

Row | Structure (SMILES) | IC50 ([1]; reticulocytes) | IC50 ([2]; hek293) | IC50 [3] | IC50 ([4]; insect cells) | IC50 ([5]; insect cells) | IC50 ([4]; read-out: IC50) | IC50 ([5]; read-out: IC50) | IC50 ([1]; read-out: IC50) | Ki [2] | IC50 ([2]; read-out: IC50) | Ki ([5]; insect cells) | IC50 ([3]; read-out: IC50) | Ki ([3]; read-out: Ki)
20 | Cc1c(F)c(N2CCNC(C)C2)cc2c1c(=O)c(C(=O)O)cn2C1CC1 (stereo not drawn) [GREPAFLOXACIN] | Not Active | Not Active | Not Active | Not Active | Not Active |  |  |  |  |  |  |  | 
21 | [N-]=[N+]=CC(=O)OC[C@H](N)C(=O)O [AZASERINE] | Not Active | Not Active | Not Active | Not Active | Not Active |  |  |  |  |  |  |  | 
22 | C#C[C@]1(O)CC[C@H]2[C@@H]3CCC4=Cc5oncc5C[C@]4(C)[C@H]3CC[C@@]21C [DANAZOL] | Not Active |  | Not Active | Not Active | Not Active |  |  |  | 6.21 µM | 15.5 µM |  |  | 
23 | CO[C@H]1[C@@H](O)[C@H](N)[C@@H](O[C@H]2O[C@H]([C@H](C)N)CC[C@H]2N)[C@H](O)[C@@H]1N(C)C(=O)CN [ASTROMICIN] | Not Active | Not Active | Not Active | Not Active | Not Active |  |  |  |  |  |  |  | 
24 | COc1ccc2cc(CCC(C)=O)ccc2c1 [NABUMETONE] | Not Active | Not Active | Not Active | Not Active | Not Active |  |  |  |  |  |  |  | 
25 | N=C(N)N/N=C/c1c(Cl)cccc1Cl [GUANABENZ] | Not Active | Not Active | Not Active | Not Active | Not Active |  |  |  |  |  |  |  | 
26 | NC(=O)N1c2ccccc2C=Cc2ccccc21 [CARBAMAZEPINE] | Not Active | Not Active | Not Active | Not Active | Not Active |  |  |  |  |  |  |  | 
27 | Cc1c(N(C)CS(=O)(=O)[O-])c(=O)n(-c2ccccc2)n1C.[Na+] [DIPYRONE SODIUM] | Not Active | Not Active | Not Active | Not Active | Not Active |  |  |  |  |  |  |  | 
28 | OCCN1CCN(CCCN2c3ccccc3Sc3ccc(Cl)cc32)CC1 [PERPHENAZINE] | Not Active | Not Active | Not Active | Not Active | Not Active |  |  |  |  |  |  |  | 
29 | CC[C@]1(O)CC[C@H]2[C@@H]3CCC4=CCCC[C@@H]4[C@H]3CC[C@@]21C | Not Active | Not Active | Not Active | Not Active | Not Active |  |  |  |  |  |  |  | 
30 | CCOC(=O)n1ccn(C)c1=S [CARBIMAZOLE] | Not Active | Not Active | Not Active | Not Active |  |  |  |  |  |  | Not Active |  | 
31 | C#C[C@]1(O)CC[C@H]2[C@@H]3CCc4cc(O)ccc4[C@H]3CC[C@@]21C [ETHINYL ESTRADIOL] |  |  |  | Not Active | Not Active |  |  | 5.68 µM | 10.4 µM | 25.9 µM |  | 7.95 µM | 1.33 µM
32 | C[C@H]([C@](O)(Cn1cncn1)c1ccc(F)cc1F)S(C)(=O)=O [GENACONAZOLE] | Not Active | Not Active | Not Active | Not Active | Not Active |  |  |  |  |  |  |  | 
33 | CCOC(=O)C1=C(C)NC(C)=C(C(=O)OC)C1c1cccc(Cl)c1Cl (stereo not drawn) [FELODIPINE] | Not Active | Not Active | Not Active | Not Active | Not Active |  |  |  |  |  |  |  | 
34 | CCOC(=O)[C@H](CCc1ccccc1)N[C@@H](C)C(=O)N1CCC[C@H]1C(=O)O | Not Active | Not Active | Not Active | Not Active | Not Active |  |  |  |  |  |  |  | 
35 | C[C@@H]1CC[C@H]2[C@@H](C)C(=O)O[C@@H]3O[C@@]4(C)CC[C@@H]1[C@]32OO4 [ARTEMISININ] | Not Active | Not Active | Not Active | Not Active | Not Active |  |  |  |  |  |  |  | 
36 | CN1C(=O)CN=C(c2ccccc2)c2cc(Cl)ccc21 [DIAZEPAM] | Not Active | Not Active | Not Active | Not Active | Not Active |  |  |  |  |  |  |  | 
37 | Nn1nnc2ccccc21 | Not Active | Not Active | Not Active | Not Active | Not Active |  |  |  |  |  |  |  | 
38 | CC(C)(CO)C(O)C(=O)NCCCO (stereo not drawn) [PANTHENOL] | Not Active | Not Active | Not Active | Not Active | Not Active |  |  |  |  |  |  |  | 
